Measured values reported in US12012639B2, “Processes for isolation and recovery of C5 sugars” (University of Louisville Research Foundation, Inc., priority 2017, dated 2024).

Experiments:
solubility in water = type: physicochemical
[1] = solubility in ethyl acetate; type: physicochemical; conditions: at 25° C.

SMILES | solubility of PBA in water (solubility in water; at 25° C.) [g PBA per 100 g H2O] | solubility in H2O (in words) (solubility in water; H2O) | volume of ethyl acetate that dissolves 1 gram [1] [mL]
OB(O)c1ccccc1 [PBA, phenyl boronic acid, reference compound] | 2.5 | – | –
c1ccc(B2OCC3OC4OB(c5ccccc5)OC4C3O2)cc1 (stereo not drawn) [XDE, xylose phenylboronic diester] | – | extremely insoluble | 5
